{"source": "patent US11400102B2", "about": "“Treatment for bacterial infections with salicylic acid analogs” (priority 2019, dated 2022)", "key": {"yersiniabactin [1]": {"system": "yersiniabactin", "assay": "13C labeled salicylic acid incorporation into Ybt in culture", "type": "cell-based", "conditions": "FIG. 12 middle panel"}, "yersiniabactin [2]": {"system": "yersiniabactin", "assay": "13C labeled salicylic acid in infection model, labeled Ybt in mouse urine", "type": "in vivo", "conditions": "FIG. 12 right panel"}}}
{"compound": "O=C(O)[13c]1[13cH][13cH][13cH][13cH][13c]1O", "note": "[^13C labeled salicylic acid]", "values": [{"measurement": "incorporation of labeled compound into Ybt during culture", "setting": "yersiniabactin [1]", "result": "incorporated"}, {"measurement": "labeled compound in mouse urine by mass spectrometry", "setting": "yersiniabactin [2]", "result": "detectable"}]}
